# Target: T1, human HSL (Homo sapiens, UniProt Q05469)
# T1 construct: generate a full length human HSL ORF with a 3′-His6 tag; made in house; host or cells: High 5 insect cells (baculovirus, pFast-BAC)
# T1 sequence (Q05469 1-1076): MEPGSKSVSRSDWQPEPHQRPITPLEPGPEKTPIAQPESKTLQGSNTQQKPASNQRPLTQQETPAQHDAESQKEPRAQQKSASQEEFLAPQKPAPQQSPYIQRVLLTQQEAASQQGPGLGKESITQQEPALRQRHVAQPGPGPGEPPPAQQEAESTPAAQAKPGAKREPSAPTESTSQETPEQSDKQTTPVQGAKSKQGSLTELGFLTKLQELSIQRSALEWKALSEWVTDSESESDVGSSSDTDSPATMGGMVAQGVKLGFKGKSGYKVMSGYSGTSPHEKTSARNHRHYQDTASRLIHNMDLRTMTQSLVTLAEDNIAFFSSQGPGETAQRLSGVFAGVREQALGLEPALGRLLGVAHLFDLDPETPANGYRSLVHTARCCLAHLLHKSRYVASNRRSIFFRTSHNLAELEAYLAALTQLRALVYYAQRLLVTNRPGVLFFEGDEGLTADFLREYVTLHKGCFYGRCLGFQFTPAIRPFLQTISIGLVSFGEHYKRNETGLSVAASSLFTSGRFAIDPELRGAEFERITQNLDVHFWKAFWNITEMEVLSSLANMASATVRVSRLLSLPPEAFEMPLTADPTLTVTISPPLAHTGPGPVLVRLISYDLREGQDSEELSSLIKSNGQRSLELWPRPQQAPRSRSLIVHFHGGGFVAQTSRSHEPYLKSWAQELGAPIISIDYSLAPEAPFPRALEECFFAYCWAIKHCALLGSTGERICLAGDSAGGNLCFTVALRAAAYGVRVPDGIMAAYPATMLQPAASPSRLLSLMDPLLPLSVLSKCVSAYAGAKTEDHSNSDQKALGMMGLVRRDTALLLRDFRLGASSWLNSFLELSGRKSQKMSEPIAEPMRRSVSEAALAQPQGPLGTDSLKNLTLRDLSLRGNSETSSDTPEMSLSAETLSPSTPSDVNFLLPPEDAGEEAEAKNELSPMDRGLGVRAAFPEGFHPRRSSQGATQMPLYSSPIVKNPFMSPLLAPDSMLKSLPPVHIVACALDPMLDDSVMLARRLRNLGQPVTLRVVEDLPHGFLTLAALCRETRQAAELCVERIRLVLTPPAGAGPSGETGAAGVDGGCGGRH
# Test: Human Hormone-Sensitive Lipase (HSL) enzyme inhibition assay (colorimetric, DMPT substrate)
# Type: biochemical
# Conditions: human full length HSL-His6, 2,3-dimercapto-1-propanol tributyrate substrate, 37° C. 20 minutes, absorbance at 405 nm; read-out: HSL hum IC50
# Procedure, shortened: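 Full-length human HSL with C-terminal His6, expressed in baculovirus-infected High 5 cells and Ni-NTA purified, was added (15 ug/ml stock) to 1.5 mM DMPT in 100 mM MOPS pH 7.2, 0.2 mg/ml fatty acid-free BSA containing compound. After 20 min at 37 °C, DTNB with SDS/Triton X-100 was added; A405 read after 15 min at RT.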
row,Structure (SMILES),IC50 [µM]
1,"Cc1cccc(CO[C@H]2CC[C@@]3(CCN(c4ccc(OC(F)(F)F)cc4)C3=O)CC2)n1 [Example 16, (5α,8β)-8-(6-Methyl-pyridin-2-ylmethoxy)-2-(4-trifluoromethoxy-phenyl)-2-aza-spiro[4.5]decan-1-one]",0.1
2,"CC[C@]1(O)CC[C@]2(CCN(c3ccc(OCC(F)(F)F)nc3)C2=O)CC1 [Example 168, (5α,8α)-8-Ethyl-8-hydroxy-2-[6-(2,2,2-trifluoro-ethoxy)-pyridin-3-yl]-2-aza-spiro[4.5]decan-1-one]",0.07
3,"COCCc1ccc(N2CC[C@]3(CC[C@](O)(CC(C)C)CC3)C2=O)cc1 [Example 125, (5α,8β)-8-Hydroxy-8-isobutyl-2-[4-(2-methoxy-ethyl)-phenyl]-2-aza-spiro[4.5]decan-1-one]",1.81
4,"COc1cccc(CNC(=O)O[C@H]2CC[C@@]3(CCN(c4ccc(OC(F)(F)F)cc4)C3=O)CC2)c1 [Example 12, (3-Methoxy-benzyl)-carbamic acid [(5α,8β)-1-oxo-2-(4-trifluoromethoxy-phenyl)-2-aza-spiro[4.5]dec-8-yl]ester]",0.06
5,"CCCCOC[C@]1(O)CC[C@@]2(CCN(c3ccc(OCC(F)(F)F)cc3)C2=O)CC1 [Example 237, (5α,8β)-8-Butoxymethyl-8-hydroxy-2-[4-(2,2,2-trifluoro-ethoxy)-phenyl]-2-aza-spiro[4.5]decan-1-one]",0.27
6,"C[C@]1(O)CC[C@@]2(CCN(c3ccc(OC(F)(F)F)cc3)C2=O)CC1 [Example 58, (5α,8β)-8-Hydroxy-8-methyl-2-(4-trifluoromethoxy-phenyl)-2-aza-spiro[4.5]decan-1-one]",0.95
7,"CO[C@H](c1ccc(N2CC[C@]3(CC[C@@](O)(C(C)C)CC3)C2=O)cc1)C(F)(F)F [Example 137, (5α,8α)-8-Hydroxy-8-isopropyl-2-(4-((R)-2,2,2-trifluoro-1-methoxyethyl)phenyl)-2-aza-spiro[4.5]decan-1-one]",0.01
8,"CCC[C@]1(O)CC[C@]2(CCN(c3ccc(O[C@H](C)C(F)(F)F)cc3)C2=O)CC1 [Example 164b, (5α,8α)-8-Hydroxy-8-propyl-2-[4-((R)-2,2,2-trifluoro-1-methyl-ethoxy)-phenyl]-2-aza-spiro[4.5]decan-1-one]",0.02
9,"CCC[C@]1(O)CC[C@]2(CCN(c3ccc(CCC(F)(F)F)cc3)C2=O)CC1 [Example 170, (5α,8α)-8-Hydroxy-8-propyl-2-[4-(3,3,3-trifluoro-propyl)-phenyl]-2-aza-spiro[4.5]decan-1-one]",0.05
10,"COc1ccc(CCN2CC[C@]3(CC[C@H](O)CC3)C2=O)cc1 [Example 35, (5α,8α)-8-Hydroxy-2-[2-(4-methoxy-phenyl)-ethyl]-2-aza-spiro[4.5]decan-1-one]",16.5
11,"CCC[C@]1(O)CC[C@]2(CCN(c3ccc(CC(F)(F)F)cc3)C2=O)CC1 [Example 81, (5α,8α)-8-Hydroxy-8-propyl-2-[4-(2,2,2-trifluoro-ethyl)-phenyl]-2-aza-spiro[4.5]decan-1-one]",0.02
12,"CC#C[C@]1(O)CC[C@]2(CCN(c3ccc(OCC(F)(F)F)cc3)C2=O)CC1 [Example 111, (5α,8α)-8-Hydroxy-8-prop-1-ynyl-2-[4-(2,2,2-trifluoro-ethoxy)phenyl]-2-aza-spiro[4.5]decan-1-one]",0.1
13,"CC(C)[C@]1(O)CC[C@]2(CCN(c3ccc([C@@H](O)C(F)(F)F)cc3)C2=O)CC1 [Example 135, (5α,8α)-8-Hydroxy-8-isopropyl-2-[4-((R)-2,2,2-trifluoro-1-hydroxy-ethyl)-phenyl]-2-aza-spiro[4.5]decan-1-one]",0.02
14,"CCC[C@]1(O)CC[C@]2(CCN(c3ccc(CCOC)cc3)C2=O)CC1 [Example 122, (5α,8α)-8-Hydroxy-2-[4-(2-methoxy-ethyl)-phenyl]-8-propyl-2-aza-spiro[4.5]decan-1-one]",0.05

# Second part, the molecule after the results:
row,IC50 [µM],Structure (SMILES)
1,0.04,"O=C1N(c2ccc(C3CC(F)(F)C3)cc2)CC[C@]12CC[C@@](O)(C(F)(F)F)CC2 [Example 340, (5α,8α)-2-[4-(3,3-Difluoro-cyclobutyl)-phenyl]-8-hydroxy-8-trifluoromethyl-2-aza-spiro[4.5]decan-1-one]"
2,0.06,"CCOC[C@]1(O)CC[C@]2(CCN(c3ccc(CC)cc3)C2=O)CC1 [Example 225, (5α,8α)-8-Ethoxymethyl-2-(4-ethyl-phenyl)-8-hydroxy-2-aza-spiro[4.5]decan-1-one]"
3,0.01,"CCOC[C@]1(O)CC[C@]2(CCN(c3ccc(O[C@@H](C)C(F)(F)F)cc3)C2=O)CC1 [Example 251, (5α,8α)-8-Ethoxymethyl-8-hydroxy-2-[4-((S)-2,2,2-trifluoro-1-methyl-ethoxy)-phenyl]-2-aza-spiro[4.5]decan-1-one]"
4,0.11,"CCC[C@]1(O)CC[C@]2(CCN(c3ccc(C(O)C(F)F)cc3)C2=O)CC1 (stereo partly drawn) [Example 195, (5α,8α)-2-(4-(2,2-difluoro-1-hydroxyethyl)phenyl)-8-hydroxy-8-propyl-2-aza-spiro[4.5]decan-1-one]"
5,0.02,"CCC[C@]1(O)CC[C@]2(CCN(c3ccc(OC(C)C)cc3)C2=O)CC1 [Example 184, (5α,8α)-8-Hydroxy-2-(4-isopropoxyphenyl)-8-propyl-2-aza-spiro[4.5]decan-1-one]"
6,0.01,"C[C@@H](Oc1ccc(N2CC[C@]3(CC[C@@](O)(COCC(F)F)CC3)C2=O)cc1)C(F)(F)F [Example 301, (5α,8α)-8-(2,2-Difluoro-ethoxymethyl)-8-hydroxy-2-[4-((R)-2,2,2-trifluoro-1-methyl-ethoxy)-phenyl]-2-aza-spiro[4.5]decan-1-one]"
7,0.01,"C[C@H](Oc1ccc(N2CC[C@]3(CC[C@@](O)(COCC(F)(F)F)CC3)C2=O)cc1)C(F)(F)F [Example 283, (5α,8α)-8-Hydroxy-8-(2,2,2-trifluoro-ethoxymethyl)-2-[4-((S)-2,2,2-trifluoro-1-methyl-ethoxy)-phenyl]-2-aza-spiro[4.5]decan-1-one]"
8,0.02,"O=C1N(c2ccc(C3CC3)cc2)CC[C@]12CC[C@@](O)(COCC(F)(F)F)CC2 [Example 289, (5α,8α)-2-(4-Cyclopropyl-phenyl)-8-hydroxy-8-(2,2,2-trifluoro-ethoxymethyl)-2-aza-spiro[4.5]decan-1-one]"
9,0.4,"CCc1ccc(N2CC[C@]3(CC[C@](O)(COCC(F)(F)F)CC3)C2=O)cc1 [Example 230, (5α,8β)-2-(4-Ethyl-phenyl)-8-hydroxy-8-(2,2,2-trifluoro-ethoxymethyl)-2-aza-spiro[4.5]decan-1-one]"
10,0.02,"O=C1N(c2ccc(OCC(F)(F)F)nc2)CC[C@]12CC[C@@](O)(COCC(F)(F)F)CC2 [Example 279, (5α,8α)-8-Hydroxy-8-(2,2,2-trifluoro-ethoxymethyl)-2-[6-(2,2,2-trifluoro-ethoxy)-pyridin-3-yl]-2-aza-spiro[4.5]decan-1-one]"
11,0.05,"CCC(O)[C@H]1CC[C@@]2(CCN(c3ccc(O[C@H](C)C(F)(F)F)cc3)C2=O)CC1 (stereo partly drawn) [Example 365, (5α,8β)-8-(1-Hydroxy-propyl)-2-[4-((R)-2,2,2-trifluoro-1-methyl-ethoxy)-phenyl]-2-aza-spiro[4.5]decan-1-one]"
12,0.05,"O=C1N(c2ccc([C@@H](O)C(F)(F)F)cc2)CC[C@]12CC[C@@](O)(C1CC1)CC2 [Example 201, (5α,8α)-8-cyclopropyl-8-hydroxy-2-(4-((R)-2,2,2-trifluoro-1-hydroxyethyl)phenyl)-2-aza-spiro[4.5]decan-1-one]"

# — US8440710B2, “HSL inhibitors useful in the treatment of diabetes” (Hoffmann-La Roche Inc., priority 2009, dated 2013)
